Measured values from patent publication US20030073815A1, “Adrenic acid receptor and uses thereof” (priority 2001, published 2003).
Entries after “also recorded” stand apart in the source; their conditions may differ.

Tests used:
PFI-011 = biological target: T1, PFI-011 (Homo sapiens, UniProt Q8TDT2); test: Functional assay measuring intracellular calcium mobilisation (FLIPR); assay type: cell-based; settings: PFI-011-transfected cells compared to mock-transfected cells; Fluo3, FLIPR
T1 construct: expressed in transfected cells
T1 sequence (Q8TDT2 whole entry): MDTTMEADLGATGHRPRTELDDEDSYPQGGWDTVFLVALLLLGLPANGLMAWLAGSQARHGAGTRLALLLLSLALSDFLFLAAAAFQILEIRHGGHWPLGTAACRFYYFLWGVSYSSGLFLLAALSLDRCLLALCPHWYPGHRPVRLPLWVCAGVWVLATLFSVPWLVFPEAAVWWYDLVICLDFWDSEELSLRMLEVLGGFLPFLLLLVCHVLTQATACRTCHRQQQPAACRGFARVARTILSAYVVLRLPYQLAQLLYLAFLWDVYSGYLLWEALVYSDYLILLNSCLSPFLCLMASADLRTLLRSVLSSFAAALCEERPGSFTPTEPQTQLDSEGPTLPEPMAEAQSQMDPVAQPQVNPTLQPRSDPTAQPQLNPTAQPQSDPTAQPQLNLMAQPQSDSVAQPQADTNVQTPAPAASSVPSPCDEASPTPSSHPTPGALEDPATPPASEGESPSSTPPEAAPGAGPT
Experimental: 5×10^6 cells of a suitable host cell line, chosen to express a low number of endogenous receptors (e.g. HEK293 or CHO-K1) and engineered to stably express certain Gα proteins (e.g. mouse Gα15 (Wilkie, T. M. et al (1991) Proc. Natl. Acad. Sci. 88, 10049-10053), a chimeric Gql5/Gql5 α-subunit, or human Gα16 (Amatruda, TT 3rd et al (1991) Proc. Natl. Acad. Sci. 88, 5587-5591)), were transiently transfected with 7.5 μg of cDNA encoding PFI-011 in a suitable mammalian cell expression vector, or vector alone, using Lipofectamine Plus® reagent (Gibco BRL) as per the manufacturer's protocol. […]
Fluorescence Imaging Plate Reader (FLIPR®) technology was employed as a means to detect activation of PFI-011 by various potential GPCR agonists.
Cells were transfected as described in Example 3. […] The FLIPR® processing involved reading the fluorescence for all samples for 2 minutes; during this time the fluorescence baseline was determined for 10 seconds. The desired amount of compounds (i.e. potential GPCR agonists) was then automatically transferred to the wells and the fluorescence was continuously monitored for the remainder of the time. […]
Compounds capable of acting as agonists for the receptor were identified by them causing a transient rise in fluorescence, and therefore in intracellular calcium, in the cells.

[1] = tested on: oxygenation of arachidonic acid; settings: cited from earlier work
rabbits = settings: cited from earlier work

## CCCCC/C=C\C/C=C\C/C=C\C/C=C\CCCCCC(=O)O [adrenic acid]
PFI-011
  response of PFI-011-expressing cells (fluorescence change over time, transient rise in intracellular calcium): response of PFI-011-expressing cells to adrenic acid; also recorded: responds to adrenic acid
[1]
  oxygenation of arachidonic acid; synthesis of prostaglandins PGF2, PGE2 & PGD2: inhibit the oxygenation of arachidonic acid
rabbits
  blood pressure and renal flow: reduce blood pressure and renal flow
